Experimental data reported in ChEMBL document CHEMBL3885881, “DrugMatrix”.

Species: Rattus norvegicus
Test: DrugMatrix - Regimen: Daily Repeat
Format: toxicity, organism-based, Sprague-Dawley
Set-up: regimen Daily Repeat, gender Male, age 6-8 weeks
Details: in vivo, po, route oral GAVAGE, vehicle 100 % WATER; for ABSOLUTE BASOPHIL / ABSOLUTE EOSINOPHIL / ABSOLUTE LYMPHOCYTE / ABSOLUTE MONOCYTE / ABSOLUTE SEGMENTED NEUTROPHIL / BASOPHIL / EOSINOPHIL / ERYTHROCYTE COUNT / HEMATOCRIT / HEMOGLOBIN / LEUKOCYTE COUNT / LYMPHOCYTE / MEAN CORPUSCULAR HEMOGLOBIN / MEAN CORPUSCULAR HEMOGLOBIN CONCENTRATION / MEAN CORPUSCULAR VOLUME / MONOCYTE / NEUTROPHIL / NUCLEATED RED BLOOD CELLS / PLATELET COUNT: tissue Blood; for ALANINE AMINOTRANSFERASE / ALBUMIN / ALKALINE PHOSPHATASE / ASPARTATE AMINOTRANSFERASE / BLOOD UREA NITROGEN / CARBON DIOXIDE / CHLORIDE / CHOLESTEROL / CREATINE PHOSPHOKINASE / CREATININE / GLUCOSE / LACTATE DEHYDROGENASE / LIPASE / PHOSPHORUS / POTASSIUM / SODIUM / TOTAL BILIRUBIN / TOTAL PROTEIN / URIC ACID: tissue Plasma
[1] = 100 mg/kg, 120 h, dose level Low, time 5 day
[2] = 2500 mg/kg, 72 h, dose level High, time 3 day
[3] = 2500 mg/kg, 120 h, dose level High, time 5 day

Compound: NCC1(CC(=O)O)CCCCC1 [GABAPENTIN]
- ABSOLUTE BASOPHIL [1]: 0 CELLS/uL
- ABSOLUTE EOSINOPHIL [1]: 0 CELLS/uL
- ABSOLUTE LYMPHOCYTE [1]: 13861.67 CELLS/uL
- ABSOLUTE MONOCYTE [1]: 159 CELLS/uL
- ABSOLUTE SEGMENTED NEUTROPHIL [1]: 1246 CELLS/uL
- BASOPHIL [1]: 0%
- EOSINOPHIL [1]: 0%
- ERYTHROCYTE COUNT [1]: 5.64 x10E6/uL
- HEMATOCRIT [1]: 35.7%
- HEMOGLOBIN [1]: 14.27 G/DL
- LEUKOCYTE COUNT [1]: 15.27 x10E3/uL
- LYMPHOCYTE [1]: 91%
- MEAN CORPUSCULAR HEMOGLOBIN [1]: 25.33 pg
- MEAN CORPUSCULAR HEMOGLOBIN CONCENTRATION [1]: 39.97 G/DL
- MEAN CORPUSCULAR VOLUME [1]: 63.33 fL
- MONOCYTE [1]: 1%
- NEUTROPHIL [1]: 8%
- NUCLEATED RED BLOOD CELLS [1]: 0 /100WBC
- PLATELET COUNT [1]: 1093 x10E3/uL
- ALANINE AMINOTRANSFERASE [1]: 54.67 u/L
- ALBUMIN [1]: 4.37 G/DL
- ALKALINE PHOSPHATASE [1]: 380.67 u/L
- ASPARTATE AMINOTRANSFERASE [1]: 86 u/L
- BLOOD UREA NITROGEN [1]: 15.67 mg/dL
- CARBON DIOXIDE [1]: 31.33 mmol/L
- CHLORIDE [1]: 101.67 MEQ/L
- CHOLESTEROL [1]: 72.33 mg/dL
- CREATINE PHOSPHOKINASE [1]: 410.33 u/L
- CREATININE [1]: 0.16 mg/dL
- GLUCOSE [1]: 172.67 mg/dL
- LACTATE DEHYDROGENASE [1]: 185.67 u/L
- LIPASE [1]: 9.67 u/L
- PHOSPHORUS [1]: 11.93 mg/dL
- POTASSIUM [1]: 6 MEQ/L
- SODIUM [1]: 144.93 MEQ/L
- TOTAL BILIRUBIN [1]: 0.1 mg/dL
- TOTAL PROTEIN [1]: 6.07 G/DL
- URIC ACID [1]: 1.23 mg/dL
- ABSOLUTE BASOPHIL [2]: 0 CELLS/uL
- ABSOLUTE EOSINOPHIL [2]: 0 CELLS/uL
- ABSOLUTE LYMPHOCYTE [2]: 17008 CELLS/uL
- ABSOLUTE MONOCYTE [2]: 0 CELLS/uL
- ABSOLUTE SEGMENTED NEUTROPHIL [2]: 1925.33 CELLS/uL
- BASOPHIL [2]: 0%
- EOSINOPHIL [2]: 0%
- ERYTHROCYTE COUNT [2]: 5.55 x10E6/uL
- HEMATOCRIT [2]: 36.63%
- HEMOGLOBIN [2]: 14.27 G/DL
- LEUKOCYTE COUNT [2]: 18.93 x10E3/uL
- LYMPHOCYTE [2]: 90%
- MEAN CORPUSCULAR HEMOGLOBIN [2]: 25.7 pg
- MEAN CORPUSCULAR HEMOGLOBIN CONCENTRATION [2]: 38.93 G/DL
- MEAN CORPUSCULAR VOLUME [2]: 66.03 fL
- MONOCYTE [2]: 0%
- NEUTROPHIL [2]: 10%
- NUCLEATED RED BLOOD CELLS [2]: 0.33 /100WBC
- PLATELET COUNT [2]: 1357 x10E3/uL
- ALANINE AMINOTRANSFERASE [2]: 70.67 u/L
- ALBUMIN [2]: 4.47 G/DL
- ALKALINE PHOSPHATASE [2]: 324.33 u/L
- ASPARTATE AMINOTRANSFERASE [2]: 79.67 u/L
- BLOOD UREA NITROGEN [2]: 15 mg/dL
- CARBON DIOXIDE [2]: 30.67 mmol/L
- CHLORIDE [2]: 99.67 MEQ/L
- CHOLESTEROL [2]: 90 mg/dL
- CREATINE PHOSPHOKINASE [2]: 203.33 u/L
- CREATININE [2]: 0.15 mg/dL
- GLUCOSE [2]: 164.33 mg/dL
- LACTATE DEHYDROGENASE [2]: 162 u/L
- LIPASE [2]: 11.33 u/L
- PHOSPHORUS [2]: 13.37 mg/dL
- POTASSIUM [2]: 6.75 MEQ/L
- SODIUM [2]: 143.83 MEQ/L
- TOTAL BILIRUBIN [2]: 0.1 mg/dL
- TOTAL PROTEIN [2]: 6.13 G/DL
- URIC ACID [2]: 2.23 mg/dL
- ABSOLUTE BASOPHIL [3]: 0 CELLS/uL
- ABSOLUTE EOSINOPHIL [3]: 0 CELLS/uL
- ABSOLUTE LYMPHOCYTE [3]: 12458 CELLS/uL
- ABSOLUTE MONOCYTE [3]: 100 CELLS/uL
- ABSOLUTE SEGMENTED NEUTROPHIL [3]: 1842 CELLS/uL
- BASOPHIL [3]: 0%
- EOSINOPHIL [3]: 0%
- ERYTHROCYTE COUNT [3]: 5.12 x10E6/uL
- HEMATOCRIT [3]: 32.03%
- HEMOGLOBIN [3]: 13.13 G/DL
- LEUKOCYTE COUNT [3]: 14.4 x10E3/uL
- LYMPHOCYTE [3]: 86.33%
- MEAN CORPUSCULAR HEMOGLOBIN [3]: 25.67 pg
- MEAN CORPUSCULAR HEMOGLOBIN CONCENTRATION [3]: 41 G/DL
- MEAN CORPUSCULAR VOLUME [3]: 62.57 fL
- MONOCYTE [3]: 0.67%
- NEUTROPHIL [3]: 13%
- NUCLEATED RED BLOOD CELLS [3]: 0 /100WBC
- PLATELET COUNT [3]: 1217 x10E3/uL
- ALANINE AMINOTRANSFERASE [3]: 71.67 u/L
- ALBUMIN [3]: 4.3 G/DL
- ALKALINE PHOSPHATASE [3]: 373 u/L
- ASPARTATE AMINOTRANSFERASE [3]: 84.67 u/L
- BLOOD UREA NITROGEN [3]: 19.67 mg/dL
- CARBON DIOXIDE [3]: 28.67 mmol/L
- CHLORIDE [3]: 102.33 MEQ/L
- CHOLESTEROL [3]: 64 mg/dL
- CREATINE PHOSPHOKINASE [3]: 156 u/L
- CREATININE [3]: 0.17 mg/dL
- GLUCOSE [3]: 148.33 mg/dL
- LACTATE DEHYDROGENASE [3]: 96.67 u/L
- LIPASE [3]: 8 u/L
- PHOSPHORUS [3]: 11.7 mg/dL
- POTASSIUM [3]: 6.37 MEQ/L
- SODIUM [3]: 144.6 MEQ/L
- TOTAL BILIRUBIN [3]: 0.17 mg/dL
- TOTAL PROTEIN [3]: 6.03 G/DL
- URIC ACID [3]: 1.33 mg/dL
